# Assay results as given in ChEMBL document CHEMBL3603815, “Exploring new Probenecid-based carbonic anhydrase inhibitors: Synthesis, biological evaluation and docking studies” (Bioorg Med Chem, 2015).
# Biological target: Carbonic anhydrase 9 (Homo sapiens, UniProt Q16790)
# Experiment: Inhibition of human carbonic anhydrase-9 incubated for 15 mins by stopped-flow CO2 hydration assay
row,SMILES,Ki [nM]
1,CCCN(CCC)S(=O)(=O)c1ccc(C(=O)N[C@@H](CC(C)C)C(=O)O)cc1,26
2,CCCN(CCC)S(=O)(=O)c1ccc(C(=O)N[C@@H](Cc2ccccc2)C(=O)O)cc1,210
3,CCCN(CCC)S(=O)(=O)c1ccc(C(=O)N[C@@H](Cc2c[nH]c3ccccc23)C(=O)O)cc1,25
4,CCCN(CCC)S(=O)(=O)c1ccc(C(=O)N[C@@H](Cc2ccc(O)cc2)C(=O)O)cc1,32
5,CCCN(CCC)S(=O)(=O)c1ccc(C(=O)NCC(N)=O)cc1,1.9
6,CCCN(CCC)S(=O)(=O)c1ccc(C(=O)N[C@@H](C)C(N)=O)cc1,15
7,CCCN(CCC)S(=O)(=O)c1ccc(C(=O)N[C@@H](Cc2ccccc2)C(N)=O)cc1,25
8,CCCN(CCC)S(=O)(=O)c1ccc(C(=O)N[C@@H](CO)C(N)=O)cc1,2.6
9,CCCN(CCC)S(=O)(=O)c1ccc(C(=O)N[C@@H](Cc2ccc(O)cc2)C(N)=O)cc1,21
10,CCCN(CCC)S(=O)(=O)c1ccc(C(=O)N[C@@H](CS)C(N)=O)cc1,28

# Second part, the molecule after the results:
row,Ki [nM],SMILES
1,27,CCCN(CCC)S(=O)(=O)c1ccc(C(=O)N[C@@H](C)C(=O)O)cc1
2,27,CCCN(CCC)S(=O)(=O)c1ccc(C(=O)N[C@@H](CO)C(=O)O)cc1
3,31,CCCN(CCC)S(=O)(=O)c1ccc(C(=O)N[C@@H](CCC(=O)O)C(=O)O)cc1
4,32,CCCN(CCC)S(=O)(=O)c1ccc(C(=O)N[C@@H](CCCCN)C(=O)O)cc1
5,26,CCCN(CCC)S(=O)(=O)c1ccc(C(=O)N[C@@H](CCCNC(=N)N)C(=O)O)cc1
6,61,CCCN(CCC)S(=O)(=O)c1ccc(C(=O)N[C@@H](CCSC)C(=O)O)cc1
7,150,CCCN(CCC)S(=O)(=O)c1ccc(C(=O)N[C@@H](CC(C)C)C(N)=O)cc1
8,27,CCCN(CCC)S(=O)(=O)c1ccc(C(=O)N[C@@H](CCCCN)C(N)=O)cc1
9,20,CCCN(CCC)S(=O)(=O)c1ccc(C(=O)N[C@@H](CCCNC(=N)N)C(N)=O)cc1

# Biological target: Carbonic anhydrase 12 (Homo sapiens, UniProt O43570)
# Experiment: Inhibition of human carbonic anhydrase-12 incubated for 15 mins by stopped-flow CO2 hydration assay
# Chain of Carbonic anhydrase 12 (O43570 whole entry): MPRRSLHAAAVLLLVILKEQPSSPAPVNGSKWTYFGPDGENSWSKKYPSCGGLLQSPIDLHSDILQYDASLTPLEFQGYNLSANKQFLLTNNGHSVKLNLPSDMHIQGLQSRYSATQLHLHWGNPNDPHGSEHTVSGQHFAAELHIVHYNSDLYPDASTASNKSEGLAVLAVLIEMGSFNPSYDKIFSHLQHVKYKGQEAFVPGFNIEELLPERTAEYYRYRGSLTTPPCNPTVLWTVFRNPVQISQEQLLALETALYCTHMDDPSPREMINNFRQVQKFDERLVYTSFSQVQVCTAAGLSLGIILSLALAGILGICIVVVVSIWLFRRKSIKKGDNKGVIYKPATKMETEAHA
row,Ki [nM],SMILES
1,> 10000,CCCN(CCC)S(=O)(=O)c1ccc(C(=O)NCC(=O)O)cc1

# Biological target: Carbonic anhydrase 1 (Homo sapiens, UniProt P00915)
# Experiment: Inhibition of human carbonic anhydrase-1 incubated for 15 mins by stopped-flow CO2 hydration assay
# Chain of Carbonic anhydrase 1 (P00915 whole entry): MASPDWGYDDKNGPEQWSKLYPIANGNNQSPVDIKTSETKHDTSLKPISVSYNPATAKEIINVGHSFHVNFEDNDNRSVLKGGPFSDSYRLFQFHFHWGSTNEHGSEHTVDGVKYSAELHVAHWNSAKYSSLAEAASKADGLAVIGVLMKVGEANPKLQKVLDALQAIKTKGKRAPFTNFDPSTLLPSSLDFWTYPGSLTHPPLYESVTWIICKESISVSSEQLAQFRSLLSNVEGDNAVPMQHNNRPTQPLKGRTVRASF
row,Ki [nM],SMILES
1,> 10000,CCCN(CCC)S(=O)(=O)c1ccc(C(=O)N[C@@H](CCSC)C(N)=O)cc1
